Structures can show the parent of a compound that is named as a salt.
Legend:
Assay in all cases: IC50 (viability, PrestoBlue) (log10 nM)
Details in all cases: exposure time: 72 h
[1] = tested on: murine gastric organoid RAS-activated (Kras G12D; Tp53 R172H)
Method: (§1)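 Murine gastric corpus organoids (normal uninduced; RAS-activated Kras G12D/Tp53 R172H; diffuse Cdh1/Apc loss; WNT-activated Apc loss/Tp53 R172H) were seeded in Matrigel into pre-spotted 384-well plates. The plates held a 196-compound library at 6.7 nM to 25,004 nM (9 doses) and were incubated 72 h. Viability was read by PrestoBlue fluorescence (560/590 nm). IC50 came from non-linear regression (Prism), reported as log10 IC50 in nM, mean of 3 passages x 2 wells.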

[2] = tested on: murine gastric organoid WNT-activated (Apc fl/fl; Tp53 R172H)
Method: as §1

[3] = tested on: murine gastric organoid diffuse (Cdh1 fl/fl; Apc fl/fl)
Method: as §1

[4] = tested on: murine normal gastric organoid
Method: as §1

Structure (SMILES): O[C@@H](COc1cccc2ncccc12)CN1CCN([C@@H]2c3ccccc3[C@@H]3[C@H](c4ccccc42)C3(F)F)CC1 [Zosuquidar trihydrochloride]
- IC50 (log10 nM) [1]: 4.07
- IC50 (log10 nM) [2]: 4.03
- IC50 (log10 nM) [3]: 4.02
- IC50 (log10 nM) [4]: 3.88

Structure (SMILES): CC(C)C[C@H](NC(=O)[C@H](Cc1ccccc1)NC(=O)c1cnccn1)B(O)O [Bortezomib]
- IC50 (log10 nM) [1]: 0.871
- IC50 (log10 nM) [2]: 1.16
- IC50 (log10 nM) [3]: 1.1
- IC50 (log10 nM) [4]: 1.14

Structure (SMILES): Nc1ncn([C@H]2C[C@H](O)[C@@H](CO)O2)c(=O)n1 [Decitabine]
- IC50 (log10 nM) [1]: > 4.4
- IC50 (log10 nM) [2]: 3.34
- IC50 (log10 nM) [3]: 3.85
- IC50 (log10 nM) [4]: 2.9

Structure (SMILES): CC(C)c1cc(-c2n[nH]c(=O)n2-c2ccc3c(ccn3C)c2)c(O)cc1O [Ganetespib]
- IC50 (log10 nM) [1]: 1.59
- IC50 (log10 nM) [2]: < 0.826
- IC50 (log10 nM) [3]: 1.5
- IC50 (log10 nM) [4]: 1.59

Structure (SMILES): C=CC(=O)N1CCC[C@@H](n2nc(-c3ccc(Oc4ccccc4)cc3)c3c(N)ncnc32)C1 [Ibrutinib]
- IC50 (log10 nM) [1]: 4.23
- IC50 (log10 nM) [2]: 2.48
- IC50 (log10 nM) [3]: 2.53
- IC50 (log10 nM) [4]: 2.2

Structure (SMILES): O=C(CCCCCCC(=O)Nc1ccccc1)NO [Vorinostat]
- IC50 (log10 nM) [1]: 3.28
- IC50 (log10 nM) [2]: 3.67
- IC50 (log10 nM) [3]: 3.65
- IC50 (log10 nM) [4]: 3.62

Structure (SMILES): C/C=C1\NC(=O)[C@H]2CSSCC/C=C/[C@H](CC(=O)N[C@H](C(C)C)C(=O)N2)OC(=O)[C@H](C(C)C)NC1=O [Romidepsin]
- IC50 (log10 nM) [1]: < 0.826
- IC50 (log10 nM) [2]: 0.997
- IC50 (log10 nM) [3]: 0.852
- IC50 (log10 nM) [4]: < 0.826

Structure (SMILES): CC[C@]1(O)C[C@@H]2CN(CCc3c([nH]c4ccccc34)[C@@](C(=O)OC)(c3cc4c(cc3OC)N(C)[C@H]3[C@@](O)(C(=O)OC)[C@H](OC(C)=O)[C@]5(CC)C=CCN6CC[C@]43[C@@H]65)C2)C1 [Vinblastine sulfate]
- IC50 (log10 nM) [1]: < 0.826
- IC50 (log10 nM) [2]: < 0.826
- IC50 (log10 nM) [3]: < 0.826
- IC50 (log10 nM) [4]: < 0.826

Structure (SMILES): Cc1[nH]c2ccccc2c1CCNCc1ccc(/C=C/C(=O)NO)cc1 [Panobinostat]
- IC50 (log10 nM) [1]: 1.81
- IC50 (log10 nM) [2]: 3.02
- IC50 (log10 nM) [3]: 2.82
- IC50 (log10 nM) [4]: 3.17

Structure (SMILES): COc1cc(OC)c(/C=C/S(=O)(=O)Cc2ccc(OC)c(NCC(=O)O)c2)c(OC)c1 [Rigosertib sodium]
- IC50 (log10 nM) [1]: 1.35
- IC50 (log10 nM) [2]: 2.01
- IC50 (log10 nM) [3]: 1.55
- IC50 (log10 nM) [4]: 1.86

Structure (SMILES): CS(=O)(=O)CCNCc1ccc(-c2ccc3ncnc(Nc4ccc(OCc5cccc(F)c5)c(Cl)c4)c3c2)o1 [Lapatinib]
- IC50 (log10 nM) [1]: 3.12
- IC50 (log10 nM) [2]: 2.43
- IC50 (log10 nM) [3]: 2.84
- IC50 (log10 nM) [4]: 2.54

Structure (SMILES): CCOc1cc2ncc(C#N)c(Nc3ccc(OCc4ccccn4)c(Cl)c3)c2cc1NC(=O)/C=C/CN(C)C [Neratinib]
- IC50 (log10 nM) [1]: > 4.4
- IC50 (log10 nM) [2]: 2.94
- IC50 (log10 nM) [3]: 3.13
- IC50 (log10 nM) [4]: 2.48

Structure (SMILES): Nc1ncn([C@@H]2O[C@H](CO)[C@@H](O)[C@H]2O)c(=O)n1 [5-Azacytidine]
- IC50 (log10 nM) [1]: 3.64
- IC50 (log10 nM) [2]: 3.58
- IC50 (log10 nM) [3]: 3.5
- IC50 (log10 nM) [4]: 3.78

Structure (SMILES): CSc1ccc2c(c1)N(CCC1CCCCN1C)c1ccccc1S2 (centres undefined) [Thioridazine hydrochloride]
- IC50 (log10 nM) [1]: 4
- IC50 (log10 nM) [2]: 3.52
- IC50 (log10 nM) [3]: 4.13
- IC50 (log10 nM) [4]: 3.9

Structure (SMILES): CC(C)Nc1cc(-c2c[nH]c(C(=O)N[C@H](CO)c3cccc(Cl)c3)c2)c(Cl)cn1 [Ulixertinib]
- IC50 (log10 nM) [1]: 3.09
- IC50 (log10 nM) [2]: 2.96
- IC50 (log10 nM) [3]: 3.42
- IC50 (log10 nM) [4]: 2.79

Structure (SMILES): CO[C@@]12[C@H](COC(N)=O)C3=C(C(=O)C(C)=C(N)C3=O)N1C[C@@H]1N[C@@H]12 [Mitomycin C]
- IC50 (log10 nM) [1]: 2.5
- IC50 (log10 nM) [2]: 2.7
- IC50 (log10 nM) [3]: 2.68
- IC50 (log10 nM) [4]: 2.64

Structure (SMILES): CN(N=O)C(=O)N[C@@H](C=O)[C@@H](O)[C@H](O)[C@H](O)CO [Streptozocin]
- IC50 (log10 nM) [1]: > 4.4
- IC50 (log10 nM) [2]: 4.07
- IC50 (log10 nM) [3]: > 4.4
- IC50 (log10 nM) [4]: 4.39

Structure (SMILES): Nc1nc(Cl)nc2c1ncn2[C@@H]1O[C@H](CO)[C@@H](O)[C@@H]1F [Clofarabine]
- IC50 (log10 nM) [1]: 3.04
- IC50 (log10 nM) [2]: 3.27
- IC50 (log10 nM) [3]: 2.97
- IC50 (log10 nM) [4]: 3.15

Structure (SMILES): COc1cc2ncnc(Nc3ccc(F)c(Cl)c3)c2cc1OCCCN1CCOCC1 [Gefitinib]
- IC50 (log10 nM) [1]: 4.06
- IC50 (log10 nM) [2]: 2.38
- IC50 (log10 nM) [3]: 2.65
- IC50 (log10 nM) [4]: 1.98

Structure (SMILES): CC(=O)[C@]1(O)Cc2c(O)c3c(c(O)c2[C@@H](O[C@H]2C[C@H](N)[C@H](O)[C@H](C)O2)C1)C(=O)c1ccccc1C3=O [Idarubicin hydrochloride]
- IC50 (log10 nM) [1]: < 0.826
- IC50 (log10 nM) [2]: 0.851
- IC50 (log10 nM) [3]: 1.41
- IC50 (log10 nM) [4]: 1.1

Structure (SMILES): COc1cc(Nc2c(C#N)cnc3cc(OCCCN4CCN(C)CC4)c(OC)cc23)c(Cl)cc1Cl [Bosutinib]
- IC50 (log10 nM) [1]: 3.57
- IC50 (log10 nM) [2]: 3.01
- IC50 (log10 nM) [3]: 3.58
- IC50 (log10 nM) [4]: 3.96

Structure (SMILES): CCc1cnn2c(NCc3ccc[n+]([O-])c3)cc(N3CCCC[C@H]3CCO)nc12 [Dinaciclib]
- IC50 (log10 nM) [1]: > 4.4
- IC50 (log10 nM) [2]: 4.28
- IC50 (log10 nM) [3]: 4.11
- IC50 (log10 nM) [4]: > 4.4

Structure (SMILES): C=CC(=O)Nc1cc(Nc2nccc(-c3cn(C)c4ccccc34)n2)c(OC)cc1N(C)CCN(C)C [Osimertinib]
- IC50 (log10 nM) [1]: 3.89
- IC50 (log10 nM) [2]: 2.46
- IC50 (log10 nM) [3]: 3.05
- IC50 (log10 nM) [4]: 2.73

Structure (SMILES): Cn1nnc2c(C(N)=O)ncn2c1=O [Temozolomide]
- IC50 (log10 nM) [1]: > 4.4
- IC50 (log10 nM) [2]: 4.02
- IC50 (log10 nM) [3]: > 4.4
- IC50 (log10 nM) [4]: 4.37

Structure (SMILES): C[C@]1(O)C[C@@H](c2nc(-c3ccc4ccc(-c5ccccc5)nc4c3)c3c(N)nccn32)C1 [Linsitinib]
- IC50 (log10 nM) [1]: < 0.826
- IC50 (log10 nM) [2]: 2.69
- IC50 (log10 nM) [3]: 3.68
- IC50 (log10 nM) [4]: 2.84

Structure (SMILES): CC(=O)Nc1ccc(C(=O)Nc2ccccc2N)cc1 [Tacedinaline]
- IC50 (log10 nM) [1]: 3.87
- IC50 (log10 nM) [2]: 4.35
- IC50 (log10 nM) [3]: 3.97
- IC50 (log10 nM) [4]: 4.34

— the supplement of paper PMC9549728
